Experimental data from patent US10906880B2, “Kind of isothiazole oxime ether-containing strobilurin derivatives and its preparation methods and application” (priority 2016, dated 2021).
Read-outs that look alike come from different tables or passages of the source.

Experiments:
Alternaria solani = test: Fungicide activity, mycelial growth inhibition on PDA plate; assay type: cell-based; conditions: Alternaria solani, read-out: Fungicidal activity inhibition, AS
Cercospora arachidicola = test: as above; assay type: cell-based; conditions: Mycosphaerella arachidis, read-out: Fungicidal activity inhibition, CA
Physalospora piricola = test: as above; assay type: cell-based; conditions: 50 μg/mL, P. piricola; read-out: Fungicidal activity inhibition, PP
Botrytis cinerea = test: as above; assay type: cell-based; conditions: Botrytis cinerea, read-out: Fungicidal activity inhibition, BC
Sclerotinia sclerotiorum = test: as above; assay type: cell-based; conditions: Sclerotinia sclerotiorum, read-out: Fungicidal activity inhibition, SS
Rhizoctonia cerealis = test: as above; assay type: cell-based; conditions: Ceratobasidium cereale, read-out: Fungicidal activity inhibition, RC
Pellicularia sasakii = test: as above; assay type: cell-based; conditions: 50 μg/mL, P. sasakii; read-out: Fungicidal activity inhibition, PS
TMV [1] = test: Anti-TMV activity on tobacco, curative mode; assay type: in vivo, tobacco mosaic virus; conditions: for inhibition at 100 µg/mL: Tobacco mosaic virus, read-out: Anti-TMV activity inhibition, Curative effect
TMV [2] = test: Anti-TMV activity on tobacco, inactivation mode; assay type: in vivo, tobacco mosaic virus; conditions: 100 μg/mL; for inhibition at 100 µg/mL: Tobacco mosaic virus, read-out: Anti-TMV activity inhibition, Inactivation effect
TMV [3] = test: Anti-TMV activity on tobacco, protection mode; assay type: in vivo, tobacco mosaic virus; conditions: 100 μg/mL; for inhibition at 100 µg/mL: Tobacco mosaic virus, read-out: Anti-TMV activity inhibition, Protection effect
[4] = system: Phytophthora infestans (Mont) de Bary; test: microbe, parasite or virus in culture; assay type: cell-based; conditions: for Fungicidal activity inhibition, PI: 50 μg/mL, P. infestans (Mont.) de Bary
TMV [5] = test: Anti-TMV activity on tobacco, induction mode (systemic acquired resistance); assay type: in vivo, tobacco mosaic virus; conditions: 100 μg/mL; for inhibition at 100 µg/mL: Tobacco mosaic virus, read-out: Anti-TMV activity inhibition, Induction effect

SMILES | inhibition at 50 µg/mL (Alternaria solani; 50 μg/mL, A. solani) [%] | inhibition at 50 µg/mL (Cercospora arachidicola; 50 μg/mL, C. arachidicola) [%] | inhibition at 50 µg/mL (Cercospora arachidicola) [%] | inhibition at 50 µg/mL (Physalospora piricola) [%] | inhibition at 50 µg/mL (Botrytis cinerea; 50 μg/mL, B. cinerea) [%] | inhibition at 50 µg/mL (Botrytis cinerea) [%] | inhibition at 50 µg/mL (Sclerotinia sclerotiorum; 50 μg/mL, S. sclerotiorum) [%] | inhibition at 50 µg/mL (Sclerotinia sclerotiorum) [%] | inhibition at 50 µg/mL (Rhizoctonia cerealis; 50 μg/mL, R. cerealis) [%] | inhibition at 50 µg/mL (Rhizoctonia cerealis) [%] | inhibition at 50 µg/mL (Pellicularia sasakii) [%] | inhibition at 100 µg/mL (TMV [2]) [%] | inhibition at 100 µg/mL (TMV [3]) [%] | melting point [°C] | Fungicidal activity inhibition, PI [4] [%] | also measured
CO/N=C(/C(=O)NCC(F)F)c1ccccc1CO/N=C(\C)c1snc(Cl)c1Cl [CL04-22A] | 37.1 | 42.9 | > 30 | 40.4 | 53.9 | > 45 | 84 | > 40 | 87.7 | > 50 | 20 | > 30 | 30.7 ± 2.06 | 78 to 80 | – | inhibition at 50 µg/mL (Alternaria solani): > 30%; inhibition at 100 µg/mL (TMV [1]; 100 μg/mL, tobacco): 23.4 ± 5.58%
CO/N=C(/C(=O)NC1CC1)c1ccccc1CO/N=C(\C)c1snc(Cl)c1Cl [CL04-22C] | 27.9 | 44 | > 30 | 61.4 | 47.4 | > 45 | 80 | > 40 | 61 | > 50 | 56.8 | 4.44 ± 0.85 | 23.6 ± 0.57 | 115 to 117 | 100 | inhibition at 100 µg/mL (TMV [1]; 100 μg/mL, tobacco): 4.62 ± 0.55%
C#CCNC(=O)/C(=N/OC)c1ccccc1CO/N=C(\N)c1snc(Cl)c1Cl [CL04-25A] | 8.2 | 20 | – | 19.3 | 42.1 | – | 46.7 | > 40 | 65.8 | > 50 | 46 | 0 | > 40 | 106 to 108 | 100 | –
C#CCNC(=O)/C(=N/OC)c1ccccc1CO/N=C(C)/C=C/c1snc(Cl)c1Cl [CL04-32B] | 41 | 52 | > 30 | 64.9 | 47.4 | > 45 | 80 | > 40 | 100 | – | 78.4 | – | 23.4 ± 1.02 | 92 to 93 | 100 | inhibition at 50 µg/mL (Alternaria solani): > 30%
CO/N=C(/C(=O)N[C@H](C)CSC)c1ccccc1CO/N=C(C)/C=C/c1snc(Cl)c1Cl [CL04-32F] | 12.7 | 12.5 | – | 58 | 42.9 | – | 52.9 | > 40 | 62 | > 50 | 21.2 | 7.71 ± 1.42 | > 40 | – | – | inhibition at 50 µg/mL ([4]; Phytophthora infestans, read-out: Fungicidal activity inhibition, PI, 50 μg/mL, P. infestans (Mont.) de Bary): 20%
N#Cc1ccccc1NC(=O)c1snc(Cl)c1Cl [Isotianil, reference compound] | – | – | – | – | – | – | – | – | – | – | – | – | – | – | – | Anti-TMV activity inhibition, Curative effect (TMV [1]; 100 μg/mL, tobacco): 27.31 ± 2.12%; Anti-TMV activity inhibition, Inactivation effect (TMV [2]): 20.77 ± 7.30%; Anti-TMV activity inhibition, Protection effect (TMV [3]): 24.80 ± 5.85%; Anti-TMV activity inhibition, Induction effect (TMV [5]): 44.44 ± 5.18%
CNCC(=O)N[C@@H](CO)C(=O)N[C@H]1[C@H](O)[C@@H](O)[C@H](n2ccc(N)nc2=O)O[C@@H]1C(N)=O [Ningnanmycin, reference compound] | – | – | – | – | – | – | – | – | – | – | – | – | – | – | – | inhibition at 100 µg/mL (TMV [1]): 74.1 ± 2.04%
NC(=O)c1ncn([C@@H]2O[C@H](CO)[C@@H](O)[C@H]2O)n1 [Ribavirin, reference compound] | – | – | – | – | – | – | – | – | – | – | – | 78 ± 1 | – | – | – | –
Nc1ccc(S(=O)(=O)Nc2nccs2)cc1 [SZG-7, reference compound] | – | – | – | – | – | – | – | – | – | – | – | – | – | – | – | inhibition at 100 µg/mL (TMV [5]): 79 ± 2.27%
Cc1ccc(NC(=O)c2snnc2C)cc1Cl [TDL, Tiadinil, reference compound] | – | – | – | – | – | – | – | – | – | – | – | – | – | – | – | inhibition at 100 µg/mL (TMV [5]): 65 ± 2%
